The values that follow come from ChEMBL document CHEMBL6127067, “Discovery, Biosynthesis, and Characterization of Rodencin, a Two-Component Lanthipeptide, Harboring d-Amino Acids Introduced by the Unusual Dehydrogenase RodJA” (J Nat Prod, 2024).

Activity calls are given as the source filed them. The calls are words filed in the database; no cut-off is given here.

One experiment deals with Bacillus subtilis. Briefly: Antimicrobial activity against Bacillus subtilis 168 assessed as absence of visible growth measured after 20 hrs by broth dilution assay. Type of experiment: functional, organism-based. (In broth dilution the organism is exposed to a series of concentrations in liquid medium.)
Experiment [1] has as its system Cell membrane. Briefly: Induction of outer membrane permeability in Escherichia coli using 1-N-Nphenylnaphthylamine fluorescent probe by microplate reader. In kind it is subcellular.
For experiment [2], the system named is Staphylococcus aureus. In words: Antimicrobial activity against Staphylococcus aureus LMG 15975 assessed as absence of visible growth measured after 20 hrs by broth dilution assay. Type of experiment: functional, organism-based.
Experiment [3] concerns Listeria monocytogenes. Briefly: Antimicrobial activity against Listeria monocytogenes LMG 10470 assessed as absence of visible growth in presence of Rod-beta measured after 20 hrs by broth dilution assay. Type of experiment: functional, organism-based.
The subject of experiment [4] is Enterococcus faecium. In words: Antimicrobial activity against Enterococcus faecium LMG 16003 assessed as absence of visible growth measured after 20 hrs by broth dilution assay. In kind it is functional, organism-based.
The test system of the next experiment is Lactococcus lactis. In words: Antimicrobial activity against Lactococcus lactis NZ9000 assessed as absence of visible growth measured after 20 hrs by broth dilution assay. In kind it is functional, organism-based.
The subject of experiment [5] is Staphylococcus aureus. In words: Antimicrobial activity against Staphylococcus aureus LMG 8224 assessed as absence of visible growth measured after 20 hrs by broth dilution assay. Type of experiment: functional, organism-based.
For experiment [6], the system named is Bacillus cereus. In words: Antimicrobial activity against Bacillus cereus ATCC14579 assessed as absence of visible growth measured after 20 hrs by broth dilution assay. Type of experiment: functional, organism-based.
A further experiment deals with Salmonella enterica. Briefly: Antimicrobial activity against Salmonella enterica LMG 07233 assessed as absence of visible growth measured after 20 hrs by broth dilution assay. Type of experiment: functional, organism-based.
In the next experiment the test system is Micrococcus flavus. Briefly: Antimicrobial activity against Micrococcus flavus NIZO B423 assessed as absence of visible growth measured after 20 hrs by broth dilution assay. In kind it is functional, organism-based.
For experiment [7], the system named is Enterococcus faecium. In words: Antimicrobial activity against Enterococcus faecium LMG 16003 assessed as absence of visible growth in presence of Rod-beta measured after 20 hrs by broth dilution assay. Type of experiment: functional, organism-based.
The subject of experiment [8] is Cell membrane. Briefly: Induction of inner membrane permeability in Micrococcus flavus NIZO B423 using DNA-binding stain propidium iodide by membrane integrity assay. In kind it is subcellular.
Another experiment concerns Escherichia coli. Briefly: Antimicrobial activity against Escherichia coli LMG 8223 assessed as absence of visible growth measured after 20 hrs by broth dilution assay. In kind it is functional, organism-based.
Experiment [9] relates to Cell membrane. In words: Induction of outer membrane permeability in Escherichia coli using 1-N-Nphenylnaphthylamine fluorescent probe in presence of Rod beta by microplate reader. Type of experiment: subcellular.
The subject of experiment [10] is Listeria monocytogenes. Briefly: Antimicrobial activity against Listeria monocytogenes LMG 10470 assessed as absence of visible growth measured after 20 hrs by broth dilution assay. Type of experiment: functional, organism-based.
The subject of experiment [11] is Staphylococcus aureus. In words: Antimicrobial activity against methicillin-resistant Staphylococcus aureus assessed as absence of visible growth in presence of Rod-beta measured after 20 hrs by broth dilution assay. In kind it is functional, organism-based.
The subject of experiment [12] is Cell membrane. Briefly: Induction of inner membrane permeability in Micrococcus flavus NIZO B423 using DNA-binding stain propidium iodide in presence of Rod beta by membrane integrity assay.
Experiment [13] can be described thus: Binding affinity to externally added Lipid II (unknown origin) in Micrococcus flavus NIZO B423 broth assessed as decrease in antimicrobial activity against Micrococcus flavus by Spot-on-lawn assay.
Experiment [14] has as its system Bacillus cereus. Briefly: Antimicrobial activity against Bacillus cereus ATCC14579 assessed as absence of visible growth in presence of Rod-beta measured after 20 hrs by broth dilution assay. Type of experiment: functional, organism-based.
Experiment [15] deals with Enterococcus faecium. Briefly: Antimicrobial activity against Enterococcus faecium LMG 16003 assessed as absence of visible growth in presence of Rod-alpha measured after 20 hrs by broth dilution assay. Type of experiment: functional, organism-based.
Experiment [16] concerns Listeria monocytogenes. Briefly: Antimicrobial activity against Listeria monocytogenes LMG 10470 assessed as absence of visible growth in presence of Rod-alpha measured after 20 hrs by broth dilution assay. In kind it is functional, organism-based.
In experiment [17] the test system is Staphylococcus aureus. In words: Antimicrobial activity against methicillin-resistant Staphylococcus aureus assessed as absence of visible growth in presence of Rod-alpha measured after 20 hrs by broth dilution assay. Type of experiment: functional, organism-based.
Experiment [18] deals with Cell membrane. In words: Induction of outer membrane permeability in Escherichia coli using 1-N-Nphenylnaphthylamine fluorescent probe in presence of Rod alpha by microplate reader. Type of experiment: subcellular.
Experiment [19] concerns Cell membrane. Briefly: Induction of inner membrane permeability in Micrococcus flavus NIZO B423 using DNA-binding stain propidium iodide in presence of Rod alpha by membrane integrity assay.
Experiment [20] relates to Bacillus cereus. In words: Antimicrobial activity against Bacillus cereus ATCC14579 assessed as absence of visible growth in presence of Rod-alpha measured after 20 hrs by broth dilution assay. In kind it is functional, organism-based.

`C/C=C(\NC(=O)[C@H](CC(N)=O)NC(=O)/C(=C/C)NC(=O)[C@@H]1CCSC[C@@H](N)C(=O)N1)C(=O)N[C@@H](Cc1ccccc1)C(=O)N[C@H](C)C(=O)N[C@@H](CC(C)C)C(=O)N[C@@H]1CSC[C@H](C(=O)N[C@H]2CCSC[C@H]3NC(=O)[C@H](CCC(=O)O)NC(=O)[C@H](CCCCN)NC(=O)[C@@H](CSC[C@H](C(=O)O)NC(=O)[C@H](Cc4c[nH]c5ccccc45)NC(=O)[C@H](C)NC(=O)[C@H](CCSC)NC3=O)NC(=O)[C@H](C(C)C)NC2=O)NC(=O)[C@H](Cc2c[nH]c3ccccc23)NC(=O)CNC(=O)CNC(=O)[C@H](CCCCN)NC(=O)[C@H](CC(N)=O)NC(=O)CNC(=O)[C@H](Cc2c[nH]c3ccccc23)NC(=O)[C@H](Cc2ccc(O)cc2)NC(=O)[C@H](CC(=O)O)NC1=O`: the result in the experiment with Bacillus subtilis, in the experiment with Cell membrane [1], in the experiment with Staphylococcus aureus [2], with Enterococcus faecium [4], with Lactococcus lactis and in the experiment on Staphylococcus aureus [5] was inactive. The outcome with Bacillus cereus [6], in the experiment on Salmonella enterica, in the experiment with Micrococcus flavus, with Cell membrane [8], with Escherichia coli and in the experiment with Listeria monocytogenes [10] was inactive. Moreover, the result (in the experiment with Listeria monocytogenes [3]; in the experiment on Enterococcus faecium [7]; with Cell membrane [9]; with Staphylococcus aureus [11]; with Cell membrane [12]; in experiment [13]) was Active. The outcome in the experiment on Bacillus cereus [14] was Active.
For `C/C=C(/NC(=O)[C@@H](N)Cc1c[nH]c2ccccc12)C(=O)N1CCC[C@H]1C(=O)N[C@@H](C)C(=O)N[C@@H](CC(C)C)C(=O)N[C@H](C)C(=O)N[C@H](C(=O)N[C@H](C(=O)N[C@H](CC)C(=O)NCC(=O)N[C@@H](Cc1ccc(O)cc1)C(=O)N[C@H](C(=O)N[C@@H]1CSC[C@H](C(=O)N2CCC[C@H]2C(=O)N[C@H]2CCSC[C@H](C(=O)N[C@H]3CCSC[C@H](C(=O)O)NC(=O)[C@H](C)NC(=O)[C@H](CCCNC(=N)N)NC3=O)NC(=O)[C@H](C)NC(=O)[C@H]([C@@H](C)O)NC2=O)NC(=O)[C@H]([C@@H](C)O)NC(=O)[C@H](CC(N)=O)NC(=O)[C@H](CO)NC1=O)[C@@H](C)CC)[C@@H](C)CC)C(C)C`, the outcome in the experiment on Bacillus subtilis, with Cell membrane [1], with Staphylococcus aureus [2], with Enterococcus faecium [4], with Lactococcus lactis and in the experiment on Staphylococcus aureus [5] was inactive. Besides, the outcome in the experiment on Bacillus cereus [6], in the experiment on Salmonella enterica, with Micrococcus flavus, in the experiment on Cell membrane [8], with Escherichia coli and in the experiment with Listeria monocytogenes [10] was inactive. Also, the outcome in the experiment on Enterococcus faecium [15], in the experiment with Listeria monocytogenes [16], in the experiment with Staphylococcus aureus [17], with Cell membrane [18], in the experiment with Cell membrane [19] and in the experiment on Bacillus cereus [20] was Active.
